Experiment: Human HepG2 cell viability assay in 384 well format
Format: toxicity, cell-based
Design: dose 125 nL, time 70.5 hour; cytotoxicity at 70.5 h: concentration not given beside the values
Conditions: HepG2 cells, read-out: Inhibition

SMILES	cytotoxicity at 70.5 h [%]
COc1ccc(CN(C)CC(=O)NC2(C)CCS(=O)(=O)C2)cc1F (configuration not stated)	-0.516
NC(=O)COc1ccc(CN2CCC3(CC2)[C@H](O)C[C@@H]3O)cc1Cl	19.2
O=C(c1ccc(NC2CC2)nc1)N1CCC(Nc2cccnn2)CC1	-8.71
Cc1cc(NC(=O)NC2CCN(C(C)C)CC2)c2ncccc2c1	-85.3
COc1ccc(NC(=O)c2ccoc2C)c(N2CCN(C(C)=O)CC2)n1	-14.1
COC(=O)CCNC(=O)c1cnc(Cc2ccc(F)cc2)s1	-2.52
N#Cc1ccc(NCCC(=O)N2CCCc3ccccc32)nc1	-6.4
Cc1cc(NC(=O)c2ccc(Br)cc2F)n(C)n1	12.5
O=C(O)COc1ccccc1CN1CCCC1c1ccncn1 (configuration not stated)	-6.02
O=c1[nH]c2c(-c3ccccn3)nsc2c(=O)n1C1CCCCC1	-5.9
COCCOc1ccnc(-c2noc([C@@H]3CCCN3CC(C)(C)C)n2)c1	2.83
CSc1ccc2cc(CN(C)CCCN(C)C)c(=O)[nH]c2c1	-11.2
COCCN(Cc1ccccc1Cl)C(=O)c1c(C)cc(C)[nH]c1=O	-2.7
CC(C)c1nnc2n1CCN(CC(=O)Nc1nncs1)C2	-6.91
O=S(=O)(C1CC1)N1CCO[C@H]2[C@H](Oc3cccnc3)CC[C@@H]21	-4.91
C[C@@H]1CN(C(=O)c2cccc(F)c2)C[C@]12CCN(c1ccsc1)C2=O	-16.2
CCOc1ccnc(N2CCN(C(=O)c3cccnc3)CC2)n1	-8.35
CN(C)CCNC(=O)c1cc(-c2cnc(N(C)C)nc2)cn1CC1CC1	-6.44
CN(Cc1nc2ccccc2n1C)CC1CCCN1c1cccnn1 (configuration not stated)	-11.1
CCOCC(O)CN1CCN(C(=O)Cc2cccc(Cl)c2)CC1 (configuration not stated)	-5.95
CCN1CCC(CC(=O)N2CCn3cccc3C2c2cccnc2)CC1 (configuration not stated)	28.5
CCOCC(=O)Nc1cccc(Oc2ccccn2)c1	-3.31
Cc1ccc(CCN2CCCC23Cc2ccccc2CNC3=O)cc1 (configuration not stated)	-4.38

SMILES	cytotoxicity at 70.5 h [%]
Cc1[nH]c2ccc(CNc3cc(C(=O)NC(C)C)ccn3)cc2c1C	-1.62
CCN1CCN(C(=O)CCc2c(C)noc2Cl)CC1	-13.8
Cc1ccccc1C(C)(C)CNC(=O)CN(C)c1cnccn1	-0.621
COc1cc(C2SCC(=O)Nc3[nH]ncc32)cc(OC)c1OC (configuration not stated)	-5.35
O=C(c1ccoc1)N1CCO[C@]2(CCC[C@@H]2COCc2cccnc2)C1	-1.92
Cc1ccc(NC2CCN(C(=O)CC3CCCO3)CC2)nn1 (configuration not stated)	-11.8
CCc1[nH]n(C)c(=N)c1-c1ccc2c(c1)OCO2	-6.78
Cc1ccc(S(=O)(=O)Nc2ccc(-n3nnn(C)c3=O)cc2)cc1	1.6
c1ccc(-c2noc([C@@H]3Cc4nc[nH]c4CN3)n2)cc1	-14
CN(C)c1cccc(C(=O)N2CCn3c(nnc3-c3ccccc3)C2)c1	-7.74
Cc1ccc(CNC2CCCc3c2cnn3C)s1 (configuration not stated)	-4.42
CCn1cnc(NC(=O)N2CCCC(c3ccccc3)CC2)n1 (configuration not stated)	-6.51
Cc1cscc1C(=O)Nc1cncnc1N(C)C	-7.99
FC1(F)CCNCC12CCN(c1cccnc1)C2 (configuration not stated)	13.7
Cc1cc(C)nc(C2CCN(c3ccncn3)C2)n1 (configuration not stated)	-2.27
CC(C)C(C)NC(=O)CCN1C(=O)CCc2cc(F)ccc21 (configuration not stated)	19.4
CC(C)c1cnc(CN(C)C2CCN(CCc3cnn(C)c3)C2)o1 (configuration not stated)	-5.18
Cc1n[nH]c(C)c1CCC(=O)NCC1COc2ccccc2C1 (configuration not stated)	-2.08
CN(C)C(CNC(=O)NCCc1cccc(O)c1)c1ccco1 (configuration not stated)	-5.87
CN1CCOC(C(=O)Nc2nnc(Cc3ccc(F)cc3)[nH]2)C1 (configuration not stated)	-7.94
CCc1noc(CC)c1CC(=O)N1CCN(C(=O)C2CCCC2)CC1	-9.43
O=C(Nc1cnccn1)[C@@H]1C[C@H]2OCC[C@H]2N(c2ncc(F)cn2)C1	18
CN(Cc1ccccc1F)Cc1cc2c(cc1Br)OCCO2	-9.57

SMILES	cytotoxicity at 70.5 h [%]
CN1CCc2onc(Cn3cccc3)c2C1	-0.902
CCC1=N[C@@]2(CC[C@@H]3CN(S(=O)(=O)CC)C[C@@H]32)C(=O)N1CC(C)C	-1.65
O=C(O)c1nnn(Cc2cccc(C(F)(F)F)c2)c1-c1ccccn1	-7.66
CC(C)(CNC(=O)Nc1ccc(S(=O)(=O)C(F)F)cc1)N1CCOCC1	-7.87
CC(C)=CCN(C)C1CCCN(Cc2noc(C)n2)C1 (configuration not stated)	21.1
Cc1nc(-c2ccsc2)ccc1C(=O)NCCCN1CCOCC1	-5.66
O=C(Cc1ccc(-c2ccccc2)cc1)N1CCOCC(O)C1 (configuration not stated)	-9.74
COc1cccc(CN(C)C(=O)NCc2c(C)cc(C)[nH]c2=O)c1	-4.51
O=C(Cc1ccccn1)N1C[C@H]2CN(Cc3ccccn3)C[C@H]2C1	-10
O=C(O)Cc1cccc(-n2ccnc2-c2ccc(Cl)s2)c1	-4.96
Cc1cnc2[nH]c(C(F)(F)F)c(CN3CCCC(CO)C3)c2c1 (configuration not stated)	3.56
CCSc1ccc(C(=O)N2CCCC2C(=O)N2CCOCC2)cn1 (configuration not stated)	-12.5
N#Cc1cccc(NC(=O)N2CCC3(CCC(=O)N(C4CC4)C3)CC2)c1	-2.97
c1nn(C2CCCCC2)cc1-c1cncn1CCCN1CCCCC1	-0.625
CC(C)CN(CC(O)c1ccc(F)cc1)C(=O)c1cc[nH]n1 (configuration not stated)	-3.9
COc1ccc(Cl)c(NCC(=O)NCC(=O)N2CCCC2)c1	-18.4
CCN1CCC2(CN(C(=O)N(C)C)CC23CCN(CC2CC2)CC3)C1=O (configuration not stated)	18.4
CN(C)C(=O)N1C[C@@H]2CC[C@H](C1)N(Cc1nnc(-c3ccccc3)o1)C2	-16.7
CCOc1ccccc1Nc1nc2c(C)nn(C)c2c(=O)n1C	8.71
Cc1ccc(CN2C[C@@H]3COC[C@H](NS(C)(=O)=O)[C@@H]3C2)s1	-10.6
Cc1nc(C)n(CC2CCCN2Cc2ccccn2)n1 (configuration not stated)	-6.2
CC(NC(=O)N1CCC(CO)CC1)c1csc2ccccc12 (configuration not stated)	-1.97
Fc1ccccc1-c1cccc(C2CCCN(C3CCOCC3)C2)n1 (configuration not stated)	-7.34

SMILES	cytotoxicity at 70.5 h [%]
O=C(c1ccncc1)N1C[C@@H]2OCCN(CCN3CCCC3)[C@@H]2C1	-4.2
Cc1cccc(CN2C(=O)C[C@H]3[C@@H]2CCN3Cc2ccc(F)cc2)n1	-2.72
COc1ccc2c(c1)OCC(Cc1cncc(N)c1)C2 (configuration not stated)	8.44
CC(c1ccncn1)N(C)S(=O)(=O)NCc1ccccc1 (configuration not stated)	47.6
CN1CCN(Cc2c(Cl)ccc(O)c2Cl)CC1C(=O)O (configuration not stated)	-16.7
CC(NC(=O)Cn1ccnc1)c1ccc(OCC2CC2)c(F)c1 (configuration not stated)	0.552
COCc1ccccc1NC(=O)CCNC(=O)c1ccoc1	-13.1
Cn1cc(CNC2CCC(O)CC2)c(-c2cc3ccccc3o2)n1 (configuration not stated)	-6.96
COc1cccc2c1OCC(C(=O)N1CCN(CCS(C)(=O)=O)CC1)C2 (configuration not stated)	-4.99
CC(=O)N1[C@H](CN(C)C)C[C@@H]2CN(C(=O)c3ccno3)CC[C@@H]21	-9.81
Cc1ccc(C)n1-c1c(C(=O)NCC(c2ccsc2)N(C)C)cnn1C (configuration not stated)	-14.4
CCCSCC(=O)N1C[C@H]2CC[C@@H]1CN(Cc1cccnc1)C2	6.46
NS(=O)(=O)CCNC(=O)C1(c2ccc(Br)cc2)CC1	-10.5
Cc1ccc(CN2Cc3nccn3CC(Cn3cccn3)C2)s1 (configuration not stated)	-4.41
COc1ccccc1-c1csc(NC(=O)N2CCN(C)CC2C)n1 (configuration not stated)	-14.7
O=C1CCOCCN1Cc1ccc(Cl)c(Cl)c1	33.5
CC(C)(C)C(=O)NCC(=O)Nc1cccnc1	-6.42
CNC(=O)[C@H]1C[C@@H]2CN(C(=O)NCCc3ccccc3)C[C@H]1O2	-12
CC(C)(C)C(CCO)NC(=O)Nc1ccncc1 (configuration not stated)	23.3
COc1ccc(C2CCCN2C(=O)NCCNc2ncccn2)cc1 (configuration not stated)	-4.74
COCC1CCCN(c2cncc(OCc3ccccc3)n2)C1 (configuration not stated)	6.39
CC(C)(C)NC(=O)c1ccccc1NC(=O)c1ccncc1	-5.9
CCN1CC2(CCC1=O)CCN(Cc1nncn1C(C)C)CC2	-5.12

SMILES	cytotoxicity at 70.5 h [%]
N#Cc1c(Cl)nsc1NCc1ccnc(OCC(F)(F)F)c1	-44.2
O=C1NCC2(CCCN(C(=O)c3c[nH]nc3C3CCCCC3)C2)O1 (configuration not stated)	-10.2
COc1cc(C(C)=O)ccc1OCCNCc1ccco1	-3.22
Cc1c(Cl)cccc1NC(=O)CCNc1ccc(C#N)cn1	-6.94
COc1ccccc1C1CCN(c2ccc3cc[nH]c3n2)CC1	-7.33
O=C(c1cccc(S(=O)(=O)NCCc2nccs2)c1)N1CCOCC1	-3.1
CC(C)N(C)Cc1nnc2n1CCCN(C(=O)C1CCCO1)C2 (configuration not stated)	-7.64
CN1C(=O)CO[C@H](c2ccc(NC(=O)c3cccnc3)cc2)[C@H]1CO	-2.53
O=C(NCC1CC1)[C@@H]1C[C@@H]2CCN(Cc3ccccc3)C[C@H]2O1	-6.35
O=C(c1ccon1)N1CCN(c2ccncc2Cl)CC1	-4.94
CCSCCC(=O)N1CCc2[nH]nc(COc3ccccc3)c2C1	23.8
Cc1cccc(C2(CNC(=O)C(C)S(C)(=O)=O)CCCC2)c1 (configuration not stated)	-3.73
Cn1cc(CN2CCC3(C2)CN(Cc2ccsc2)C3)cn1	-6.34
CN(C)S(=O)(=O)N1CC[C@]2(O)CCN(c3ncccn3)C[C@@H]2C1	-9.31
Cc1cnc(CN(C)C2CCN(Cc3nc4ccccc4o3)C2)o1 (configuration not stated)	15.3
Cc1cccc(CN2CCn3c(COc4ncccn4)nnc3C2)n1	4.18
Cc1nc(CC(=O)N2c3ccccc3OCC2C)cs1 (configuration not stated)	-9.24
COCCn1c2c(ccc1=O)CC(NS(C)(=O)=O)CC2 (configuration not stated)	16
Cc1cc(C)nc(NC2CCOC3(CCCC3)C2)n1 (configuration not stated)	3.01
Cn1cc(Cl)c(CN(Cc2ccsc2)CC2CCCO2)n1 (configuration not stated)	-5.58

Source: ChEMBL document CHEMBL3507680, “University of Dundee, Gates Library screen for HepG2 cell viability”
